From US11320428B2, “Probe for dual-mode bio-imaging” (THE HONG KONG UNIVERSITY OF SCIENCE AND TECHNOLOGY, priority 2017, dated 2022)

Tests used:
HeLa cells [1] = test: Cell viability / cytotoxicity evaluated by MTT assay; format: cell-based
Procedure: For cell culturing, HeLa cells were cultured in the MEM containing 10% FBS and antibiotics (100 units/mL penicillin and 100 µg/mL streptomycin) in a humidity incubator with an atmosphere of 5% CO2 at 37° C. and subcultured every 2-3 days.
For cell viability evaluated by MTT assay, cells were seeded in 96-well plates at a density of 10000 cells per well. After 24 h incubation, medium in each well was replaced by 100 μL fresh medium containing different concentrations of AIE-SRS-Mito. After 24 hours of treatment, into each well, 10 μL MTT solution (5 mg/mL in PBS) was added. After 4 hours of incubation, the MTT-containing solution was gently removed and replaced with 100 μL of DMSO. After agitation, the absorption of each well at 490 nm was recorded via a plate reader (Perkin-Elmer Victor3™). Each of the experiments were performed for 6 wells parallel. The background of the blank was subtracted and the cell viability of the control group was set to unity.
Cell cytotoxicity was evaluated by MTT assay (FIG. 4E). HeLa cells were incubated with different concentrations of AIE-SRS-Mito for 24 hours. For example, HeLa cells were incubated with different concentrations of AIE-SRS-Mito for 20 or 40 min and then the medium was replaced with fresh medium, followed by further incubation for 24 hours.

HeLa cells [2] = test: Fluorescence cell imaging and co-localization with Mitotracker Red FM; format: cell-based; conditions: 20 min
Procedure: For cell imaging, HeLa cells were grown overnight on a 35-mm petri dish with a cover slip. The cover slip was mounted to an iron slide with observation window. The staining solution was prepared by adding the dye stock solution (10 mM in DMSO) in to 2 mL of cell medium. Before imaging, the cells were stained with 2 mL of dye solution for a certain time and then imaged under an FL microscope (BX41 upright Microscope) using different combinations of excitation and emission filters for each dye.
To verify the mitochondrial specificity of AIE-SRS-Mito, cellular imaging was first conducted by incubating HeLa cells with 5 μM AIE-SRS-Mito for 20 min.
A co-localization experiment was then conducted using AIE-SRS-Mito and a commercial mitochondrial probe, Mitotacker Red (MTR) FM. The excitation wavelength was 330-385 nm for AIE-SRS-Mito and 540-580 nm for MTR. As shown in FIGS. 4A-4D, AIE-SRS-Mito stained the linear reticulum-like structures in cells with high contrast.

HeLa cells [3] = test: SRS imaging in live cells; format: cell-based; conditions: 5 μM for 60 min, staining much shorter than EdU
Procedure: SRS imaging was conducted with live HeLa cells to validate a newly built SRS imaging system. The DNA of HeLa cells were pre-labeled with EdU by incubation with 100 μM of EdU in culture medium for 22 hours to ensure sufficient cell-uptake. FIGS. 7A-7D show the distributions of protein, lipid, cytochrome c and DNA in HeLa cells at 2950 cm^−1, 2845 cm^−1, 752 cm^−1, and 2125 cm^−1, respectively.
Due to the high Raman signal (RIE=6) and mitochondria targeting of AIE-SRS-Mito, AIE-SRS-Mito can serve as a mitochondrial probe for Raman microscopy. In previous reports, cytochrome c, an endogenous protein abundant in the mitochondria membrane, was used for visualization of the mitochondria. However, compared to the unclear and low-contrast image of mitochondria by cytochrome c (752 cm^−1, FIG. 7C), the SRS image of mitochondria in HeLa cells were obtained at 2223 cm^−1 with much more clear reticulum-like structures after incubated with 5 μM of AIE-SRS-Mito for 60 min (FIGS. 8A and 8C). Meanwhile, the nuclei of the Hela cells were prelabeled with EdU and imaged at 2125 cm^−1 (FIGS. 8B and 8D).

HeLa cells [4] = test: FL-SRS imaging: intracellular dye concentration from SRS intensity (ISRS=0.1567c); format: cell-based; conditions: for percentage of high concentration region (>0.5 mM) / ultimate high concentration within the cells: 20 μM; for ultimate high concentration within the cells: covering >99.5% cell area
Excerpt: To eliminate the influence of light reflection and scattering on the baseline, SRS intensity ION at 2223 cm^−1 (resonance-on) and IOFF at 2160 cm^−1 (resonance-off) was used to calculate the SRS signal intensity ISRS=ION−IOFF. After subtracting the intrinsic ISRS=0.042 V in pure DMSO (background), a linear relationship between SRS intensity ISRS and the dye concentration c was obtained as ISRS=0.1567c with R^2=0.99944 in the plot shown in FIG. 5B. The analytical detection limit and quantification limit were calculated to be 8.5 μM and 28.4 μM, respectively, indicating the high sensitivity of the SRS system. Further, the SRS spectra of AIE-SRS-Mito were collected at different concentrations in DMSO and no obvious shifts in the peak position was found, indicating the inertness of Raman signal to the concentration change. Due to the inert response of SRS signal to the change of environment, the linear plot of ISRS=0.1567c can act further as a calibration for the intracellular dye concentration by keeping the same signal collecting condition.
At first, as shown in FIGS. 9A-9D, images of HeLa cells were collected by TPEF and SRS signals, respectively, and the merged image indicated a perfect co-localization of the intracellular distribution of the fluorescence and SRS signals, confirming the dual-modality of the probe. […] Due to the inertness of SRS signal and the linear relationship (ISRS=0.1567 c), the distribution of the dye concentration inside a single cell was further analyzed.
To examine the influence of intracellular concentration of AIE-SRS-Mito on the cells, attempts were made to increase the amounts of dye in the cells by increasing the incubation time. As shown in FIGS. 11A-11F, with the extension of incubation time, both the TPEF and SRS intensity were increased with a reduced mitochondrial selectivity. […] This can be attributed to the fact that the high concentration of cationic dyes in the mitochondria matrix will cause depolarization and increase the osmotic stress of the mitochondria, consequently leading to cell death as indicated by the results of the MTT assay (FIG. 4E). Similar results were found when increasing the dye concentration (FIGS. 12A-12F).
To further study acceptable intracellular concentrations of the dye molecules in a cell, the distribution of the dye concentration for cells was plotted. The percentages of high concentration region (>0.5 mM) were calculated to be 16.7%, 23.9% and 30.0% for the cells incubated with 20 μM of AIE-SRS-Mito for 30, 60 and 105 min, respectively. The ultimate high concentration within the cells was estimated to be 1.5, 2.0, 3.0 mM, respectively, covering >99.5% cell area. […] Such a high concentration is enough to cause the quenching of Rhodamine 123 in cells.

[5] = Behaviour in DMSO-water mixtures (solubility in water); format: physicochemical; conditions: aggregation/precipitation above 70 vol % water, 10 μM
Excerpt: Then AIE-SRS-Mito was studied in DMSO-water mixtures with different water fractions. As shown in FIGS. 1C-1D, the emission peak intensity was decreased with the increase of water fraction from 0 to 70 vol % due the quenching effect of the highly polar water. […] This is a typical AIE phenomenon, as the free intramolecular rotations of the excited molecules were restricted upon aggregation, thus blocking the non-radiative decays and favoring the radiative decay. Only a slight red-shift in peak wavelength was observed and this should be attributed to the increased solution polarity by increasing water fraction. The AIE feature and TICT effect upon excitation were further verified by the theoretical calculations (FIGS. 2A-2C).

## CC[n+]1ccc(-c2ccc(/C(C#N)=C/c3ccc(C#Cc4ccccc4)cc3)cc2)cc1 [AIE-SRS-Mito]
HeLa cells [1]; Homo sapiens, incubation for 24 hours, concentrations 0 to 40 μM, FIG. 4E, read-out: half maximal inhibitory concentration (IC50) of cell viability
  IC50: ~7 µM
HeLa cells [1]; treatment with <40 μM for <40 min, then fresh medium and further 24 hours
  cell viability: over 70%
HeLa cells [2]; HeLa cells co-stained, 5 μM probe and 100 nM MTR
  mitochondrial selectivity (overlap with Mitotracker Red FM fluorescence): good mitochondrial selectivity
HeLa cells [2]; HeLa cells, 5 μM, fluorescence imaging, compared to synthetic precursors
  cell permeability: good cell permeability
HeLa cells [3]
  cell permeability: good cell permeability
HeLa cells [4]; HeLa cells, with moderate cell viability
  dye concentration in mitochondria matrix tolerated by cells: up to 3.0 mM
HeLa cells [4]; HeLa, 30 min
  percentage of high concentration region (>0.5 mM): 16.7%
  ultimate high concentration within the cells: 1.5 mM
HeLa cells [4]; HeLa, 60 min
  percentage of high concentration region (>0.5 mM): 23.9%
  ultimate high concentration within the cells: 2.0 mM
HeLa cells [4]; HeLa, 105 min
  percentage of high concentration region (>0.5 mM): 30.0%
  ultimate high concentration within the cells: 3.0 mM
HeLa cells [4]; HeLa, incubation concentration 20 μM, 30 min
  local concentration relative to incubation concentration: 75 folds
HeLa cells [4]; single HeLa cell, 20 μM for 30 min, FIG. 10D
  local concentration within a cell: up to 1.5 mM
[5]
  solubility in water: poor solubility
